Legend:
[1] = tested on: Gnas^ΔCD11c CD11c^+ BM cells; test: Co-culture of Gnas^ΔCD11c CD11c+ BM cells with OT-2 CD4+ T cells, IL-4 by ELISA (pro-Th2 phenotype); assay type: cell-based, mouse
Procedure: For the inhibition of Th2 response by cAMP, fl/fl or Gnas^ΔCD11c BM-derived CD11c^+ cells were cultured as above, then, incubated with 8-CPT-cAMP (50 μM) for 24 h, washed and then co-cultured with OT-2 T cells.

WT CD11c^+ BM cells = test: Co-culture of WT CD11c+ BM cells with OT-2 CD4+ T cells, IL-4 by ELISA (pro-Th2 phenotype); assay type: cell-based, mouse; details: H-89 10 μM; CE3F4 50 μM or 25 μM (method); 30 min at 37° C.; FIG. 9b
Procedure: Cytokine levels in the supernatant were determined using ELISA kits for IL-4, IL-5, IL-13, IL-10, IFNγ, TNFα and IL-17A (eBioscience, La Jolla, Calif.) following the manufacturers' instructions as published^17.
WT BM-derived CD11c^+ cells were cultured and then incubated with a PKA inhibitor (H-89, 10 μM), with or without pretreatment with pertussis toxin (PTX, 100 μg/ml, 18 h), or with EPAC inhibitor (CE3F4, 25 μM) for 30 min at 37° C., then washed and co-cultured with OT-2 T cells.

[2] = tested on: WT (B6) and Gnas^ΔCD11c recipient mice; test: Adoptive transfer of OVA-loaded Gnas^ΔCD11c CD11c+ BM cells treated with or without 8-CPT-cAMP; assay type: in vivo, mouse; details: BM cells treated in vitro with 50 μM 8-CPT-cAMP before i.n. transfer, 2×10^5 cells/recipient
Procedure: FIG. 14: Adoptive transfer of CD11c^+ BM cells from Gnas^ΔCD11c mice induces a Th2 bias in vivo, a response that is inhibited by a cell-permeable cAMP analogue: (a) OVA-specific IL-4 response by OT-2 CD4^+ T cells co-cultured with cell-permeable cAMP (8-CPT-cAMP, 50 μM)-treated CD11c^+ BM cells, (b) Protocol of the adoptive transfer. OVA-loaded Gnas^ΔCD11c CD11c^+ BM cells were incubated in the absence and presence of 50 μM 8-CPT-cAMP (CPT) in vitro prior to i.n. transfer to WT (B6 mice) and Gnas^ΔCD11c recipients (2×10^5 cells/recipient), (c) IL-4 levels of anti-CD3/28 Ab-stimulated CD4^+ T cells (spleen) from WT or Gnas^ΔCD11c recipients (ELISA), (d) Serum levels of IgE and IgG1 from WT and Gnas^ΔCD11c mice that received Gnas^ΔCD11c CD11c^+ BM cells loaded with OVA with/without CPT, (e) Lung histology from WT and Gnas^ΔCD11c recipients (magnification ×100, scale bar: 100 μm) (Data are mean±s.e.m, n=3-4 in each group; * p<0.05, ** p<0.01, p<0.001).
Adoptive transfer of OVA-pulsed Gnas^ΔCD11c CD11c^+ BM cells into mice was performed as described previously^55. […] 1 day after the last OVA challenge, mice were sacrificed and assessed by lung histology, measurement of serum immunoglobulins and cytokine production.

[3] = tested on: CCL2 expression in Gnas^ΔCD11c CD11c^+ BM cells; test: CCL2 mRNA levels (qPCR) in CD11c+ BM cells; assay type: cell-based, mouse; details: Gnas^ΔCD11c CD11c+ BM cells incubated with 8-CPT-cAMP 50 μM; FIG. 9g
Procedure: Isolation of RNA was carried out using an RNeasy Mini Kit (QIAGEN, Valencia, Calif.) according to the manufacturer's instructions. The cDNA was synthesized using Superscript III First-Strand system (Invitrogen). Quantitative PCR analysis was performed as described previously^54. SYBR Green PCR Master Mix was used for real-time PCR (7300 system, Applied Biosystems). Samples were run in triplicate and normalized by a housekeeping gene (mouse GAPDH).

Wild-type B6 mice = test: Immunization with OVA, alum and cAMP-elevating agent; OVA-specific IL-17 (ELISA); assay type: in vivo, mouse; details: i.p. twice two weeks apart, OVA 50 μg/mice with alum; colforsin 1 mg/kg, IBMX 5 mg/kg; spleen cells of day 28 incubated 3 days with OVA; FIG. 16
Procedure: FIG. 16 cAMP agents provoke IL-17 responses: Wild-type B6 mice were immunized intraperitoneally (i.p.) twice two weeks apart with OVA (50 μg/mice) with and without alum (20 mg/mice), and colforsin (CF; a cAMP elevating drug that is approved for human use in Japan, 1 mg/kg), IBMX (a PDE inhibitor, 5 mg/kg), or solvent only as a control; on day 28, single-cell suspensions were prepared from the spleens and incubated for 3 days with OVA (200 μg/mL) as we described earlier (16); IL-17 levels were then detected (ELISA); *p<0.05 and **p<0.01 compared with OVA/alum-immunized group, n=4/group.
Based on the data presented above, co-immunization with antigen and a cAMP-elevating agent can induce a Th17 response. To promote stimulation of the same DC with antigen and cAMP agent, both were adsorbed to alum, an adjuvant used in humans (22), and immunized C57BL/6 (B6) mice with the combination.

`O=P1(O)OCC2OC(n3cnc4c(Nc5ccccc5)ncnc43)C(O)C2O1` (stereo not drawn) [N6, Phenyladenosine-3′,5′-cyclic monophosphate] was tested, and the “pro-Th2 phenotype of Gnas^ΔCD11c CD11c+ BM cells (IL-4 levels of co-cultured OT-2 CD4+ T cells)” value ([1]; BM cells incubated with cAMP analogue 50 μM for 24 h, washed, co-cultured with OT-2 T cells, FIG. 9a) was “abolished the pro-Th2 phenotype”.
For `CC1CCc2c(cc(Br)c(F)c2Br)N1C=O` (stereo not drawn) [CE3F4], the “pro-Th2 phenotype of WT CD11c+ BM cells (IL-4 levels of co-cultured OT-2 CD4+ T cells)” value (WT CD11c^+ BM cells) was “but not with an EPAC inhibitor (CE3F4), promoted their pro-Th2 phenotype”.
For `Nc1ncnc2c1nc(Sc1ccc(Cl)cc1)n2[C@@H]1O[C@@H]2COP(=O)([O-])O[C@H]2[C@H]1O.[Na+]` [CPT, 8-(4-Chlorophenylthio) adenosine 3′,5′-cyclic monophosphate sodium salt], the “development of Th2 bias in recipients (IL-4 of splenic CD4+ T cells, serum IgE)” value ([2]; FIG. 14c-d) was “inhibited development of Th2 bias”, the “airway inflammation in recipients (lung histology)” value ([2]; FIG. 14e) was “inhibited development of Th2 bias and airway inflammation” and the “CCL2 expression (mRNA, qPCR)” value [3] was “decreased CCL2 expression”. For the same molecule, the “IL-4 production by OT-2 CD4+ T cells co-cultured with treated Gnas^ΔCD11c BM cells” value ([1]; 8-CPT-cAMP 50 μM, 24 h, in vitro, FIG. 14a) was “abolished the subsequent IL-4 production”.
In the case of `O=S(=O)(NCCNC/C=C/c1ccc(Br)cc1)c1cccc2cnccc12` [H-89], the “pro-Th2 phenotype of WT CD11c+ BM cells (IL-4 levels of co-cultured OT-2 CD4+ T cells)” value (WT CD11c^+ BM cells) is reported as “promoted their pro-Th2 phenotype”.
In the case of `CC(C)Cn1c(=O)n(C)c(=O)c2[nH]cnc21` [IBMX, 3-isobutyl-1-methylxanthine], the “OVA-specific IL-17 response” value (Wild-type B6 mice) is reported as “provoked a robust OVA-specific IL-17 response”.
With `C=C[C@@]1(C)CC(=O)[C@]2(O)[C@@]3(C)[C@@H](O)CCC(C)(C)[C@@H]3[C@H](O)[C@H](OC(C)=O)[C@@]2(C)O1` [colforsin] the “OVA-specific IL-17 response” value (Wild-type B6 mice) was “provoked a robust OVA-specific IL-17 response”.
